Experimental data from patent US6376670B1, “Quinoline-indole antimicrobial agents, uses and compositions related thereto” (Sepracor Inc., priority 1997, dated 2002).
Where two headings read alike, the source gives them in different places.

Experiments:
Assay in all cases: Determination of MIC values (BHI broth, 96 well microtiter plate)
Type in all cases: cell-based
Streptococcus pneumoniae = details: Streptococcus pneumoniae, BHI broth, read-out: MIC S. pneu
Summary of the method: (§1)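 MIC was read as the lowest drug concentration without observable growth after roughly 16 h at 37 °C under about 7–10% CO2. Wells held BHI broth with compound at final 25–0.39 μg/mL (1:100 from DMSO dilutions). Each well was inoculated at 10^5–10^6 cells/mL.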

[1] = test system: methicillin-resistant Staphylococcus aureus (MRSA); details: MRSA, BHI broth; for MIC: Staphylococcus aureus, read-out: MIC MRSA
Summary of the method: as §1

[2] = test system: vancomycin-resistant Enterococcus spp. (VRE); details: Enterococcus, VRE, BHI broth, read-out: MIC VREF
Summary of the method: as §1

[3] = 37° C., overnight (about 16 hours)
[4] = 16 h, 37° C., overnight (about 16 hours)

Structure (SMILES)	MIC (Streptococcus pneumoniae; [3])	MIC [1, 4]	MIC [2, 4]	MIC (Streptococcus pneumoniae; S. pneu, overnight 37° C.)	MIC MRSA ([1]; overnight 37° C.)	MIC ([2]; VREF, overnight 37° C.)	MIC ([1]; overnight 37° C.)
COc1ccc2[nH]cc(-c3ccc4cc(Cl)ccc4n3)c2c1 [Example 195]	> 25 µg/mL	> 25 µg/mL	> 25 µg/mL	–	–	–	–
O=[N+]([O-])c1ccc2[nH]cc(-c3ccc4cc(Cl)ccc4n3)c2c1 [Example 196]	< 25 µg/mL	< 7 µg/mL	> 25 µg/mL	–	–	–	–
Cc1cccc2c(-c3ccc4cc(Cl)ccc4n3)c[nH]c12 [Example 199]	> 25 µg/mL	> 25 µg/mL	> 25 µg/mL	–	–	–	–
N#Cc1ccc2[nH]cc(-c3ccc4cc(Cl)ccc4n3)c2c1 [Example 200]	–	–	–	> 25 µg/mL	< 7 µg/mL	> 25 µg/mL	–
Clc1ccc2nc(-c3c[nH]c4cccc(Cl)c34)ccc2c1 [Example 201]	–	–	–	< 7 µg/mL	–	< 25 µg/mL	< 7 µg/mL
Clc1ccc2nc(-c3c[nH]c4cc(Cl)ccc34)ccc2c1 [Example 202]	–	–	–	< 7 µg/mL	–	> 25 µg/mL	< 7 µg/mL
CC(=O)Oc1cccc2[nH]cc(-c3ccc4cc(Cl)ccc4n3)c12 [Example 204]	–	–	–	< 7 µg/mL	–	< 25 µg/mL	< 7 µg/mL
NCc1ccc(CNC(=O)c2cc(-c3c[nH]c4ccc(Br)cc34)nc3ccc(C#CCN4CCNCC4)cc23)cc1 [Example 208]	–	–	–	< 25 µg/mL	–	< 25 µg/mL	< 7 µg/mL
NCc1ccc(CNC(=O)c2cc(-c3c[nH]c4ccc(Br)cc34)nc3cc(Cl)cc(Cl)c23)cc1 [Example 209]	–	–	–	< 7 µg/mL	–	< 7 µg/mL	< 7 µg/mL
Cn1cc(-c2ccc3cc(Cl)ccc3n2)c2c(F)cccc21 [Example 211]	–	–	–	> 25 µg/mL	–	> 25 µg/mL	< 25 µg/mL
Cc1cccc2c(-c3ccc4cc(Cl)ccc4n3)cn(C)c12 [Example 217]	–	–	–	< 7 µg/mL	–	< 25 µg/mL	< 25 µg/mL
Cn1cc(-c2ccc3cc(Cl)ccc3n2)c2cc(C#N)ccc21 [Example 218]	–	–	–	> 25 µg/mL	–	> 25 µg/mL	< 7 µg/mL
Cn1cc(-c2ccc3cc(Cl)ccc3n2)c2ccc(Cl)cc21 [Example 219]	–	–	–	< 25 µg/mL	–	> 25 µg/mL	> 25 µg/mL
Cn1cc(-c2ccc3cc(Cl)ccc3n2)c2cc(O)ccc21 [Example 221]	–	–	–	< 7 µg/mL	–	< 7 µg/mL	< 7 µg/mL
NCc1ccc(CNC(=O)c2cc(-c3c[nH]c4ccc(Br)cc34)nc3ccc(C#CCNCCc4ccccc4)cc23)cc1 [Example 223]	–	–	–	< 7 µg/mL	–	< 7 µg/mL	< 7 µg/mL
NCc1ccc(CNC(=O)c2cc(-c3c[nH]c4ccc(Cl)cc34)nc3ccc(I)cc23)cc1 [Example 224]	–	–	–	< 7 µg/mL	–	< 7 µg/mL	< 7 µg/mL
Cn1cc(-c2cc(C(=O)NCc3cccc(CN)c3)c3cc(I)ccc3n2)c2cc(Cl)ccc21 [Example 225]	–	–	–	< 7 µg/mL	–	< 7 µg/mL	< 7 µg/mL
NCC1CCC(CNC(=O)c2cc(-c3c[nH]c4ccc(Cl)cc34)nc3ccc(I)cc23)CC1 (stereo not drawn) [Example 226]	–	–	–	< 7 µg/mL	–	< 25 µg/mL	< 25 µg/mL
Cn1cc(-c2cc(C(=O)NCc3cccc(CN)c3)c3ccccc3n2)c2cc(Br)ccc21 [Example 227]	–	–	–	< 7 µg/mL	–	< 7 µg/mL	< 7 µg/mL
NCc1ccc(CNC(=O)c2cc(-c3c[nH]c4ccc(Br)cc34)nc3ccc(/C=C/c4ccccc4)cc23)cc1 [Example 228]	–	–	–	> 25 µg/mL	–	> 25 µg/mL	> 25 µg/mL
NCc1ccc(CNC(=O)c2cc(-c3c[nH]c4ccc(Cl)cc34)nc3ccc(Br)cc23)cc1 [Example 229]	–	–	–	< 7 µg/mL	–	< 7 µg/mL	< 7 µg/mL
NCc1ccc(CNC(=O)c2cc(-c3c[nH]c4ccc(Cl)cc34)nc3cc(Br)ccc23)cc1 [Example 230]	–	–	–	< 7 µg/mL	–	< 7 µg/mL	< 7 µg/mL
NCc1ccc(CNC(=O)c2cc(-c3c[nH]c4ccc(Cl)cc34)nc3c(Br)cccc23)cc1 [Example 231]	–	–	–	< 7 µg/mL	–	< 7 µg/mL	< 7 µg/mL
Cn1cc(-c2ccc3cc(Cl)ccc3n2)c2cc([N+](=O)[O-])ccc21 [Example 232]	–	–	–	< 7 µg/mL	–	< 7 µg/mL	< 7 µg/mL
O=C(O)c1cc(-c2c[nH]c3ccc(Br)cc23)nc2ccc(C#CCNC3CCCCC3)cc12 [Example 233]	–	–	–	< 25 µg/mL	–	< 25 µg/mL	> 25 µg/mL
O=C(O)c1cc(-c2c[nH]c3ccc(Br)cc23)nc2ccc(C#CCN3CCCC3)cc12 [Example 234]	–	–	–	> 25 µg/mL	–	> 25 µg/mL	> 25 µg/mL
